From ChEMBL document CHEMBL1201862, “PubChem BioAssay data set” (2004)
The source made the active and inactive calls.

Tests used:
[1] = molecular target: SWI/SNF-related matrix-associated actin-dependent regulator of chromatin subfamily A member 2 (Homo sapiens, UniProt P51531); assay: Luminescence-based cell-based high throughput dose response assay to identify activators of the function of SWI/SNF related, matrix associated, actin dependent regulator of chromatin, subfamily a, member 2 (SMARCA2, BRM).; assay type: functional
[2] = Counterscreen for activators of the function of SWI/SNF related, matrix associated, actin dependent regulator of chromatin, subfamily a, member 2 (SMARCA2, BRM): Luminescence-based cell-based high throughput dose response assay to identify non-selective compounds using the VP16 reporter assay.; assay type: functional
HeLa = assay: HeLa cell cytotoxicity, dose response, cytotoxicity control, ATP luminescence, cherry-pick samples (AID 687004); assay type: functional, cell-based; conditions: Homo sapiens
[3] = MC4R antagonists, dose response, counter-screen for LGR2 antagonist project, cell-based, plate reader, cherry pick (AID 743444); assay type: functional;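 note: transfected HEK 293 cells stimulated with alpha-MSH peptide; potency of inhibitors of the alpha-MSH evoked signal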
[4] = molecular target: T1, DNA repair protein RAD52 homolog (Homo sapiens, UniProt P43351); assay type: functional, biochemical
T1 sequence (P43351 whole entry): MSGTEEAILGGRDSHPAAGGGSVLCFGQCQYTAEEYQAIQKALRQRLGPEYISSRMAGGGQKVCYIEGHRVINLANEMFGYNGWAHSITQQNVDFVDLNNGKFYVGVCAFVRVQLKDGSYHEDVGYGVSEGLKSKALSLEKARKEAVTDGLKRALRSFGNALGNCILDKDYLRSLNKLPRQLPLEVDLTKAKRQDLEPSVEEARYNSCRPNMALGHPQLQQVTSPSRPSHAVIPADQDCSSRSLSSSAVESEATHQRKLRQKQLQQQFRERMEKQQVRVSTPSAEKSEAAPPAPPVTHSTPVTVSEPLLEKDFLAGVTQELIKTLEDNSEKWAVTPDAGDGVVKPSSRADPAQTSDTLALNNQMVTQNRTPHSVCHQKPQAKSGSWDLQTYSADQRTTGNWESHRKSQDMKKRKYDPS

[5] = LGR2 antagonists, dose response, cell-based, HEK293, CRE-luciferase reporter, cherry pick, set 2 (AID 743343); assay type: functional;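 note: transfected cells were stimulated with diluted bursicon conditioned medium after compound addition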
INS1 = assay: beta cell apoptosis inhibitors, cytokine rescue, dose response, luminescence, retest (AID 449756); assay type: functional, cell-based; conditions: Rattus norvegicus;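 note: cell death triggered by IL-1 beta plus TNF-alpha plus IFN-gamma mixture; protective hits raise ATP signal compared with cytokine alone wells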
[6] = A549 cell cytotoxicity, dose response, cytotoxicity control, plate reader, cherry-pick, antagonist series (AID 743412); assay type: functional, cell-based
[7] = HEK293 cell cytotoxicity, dose response, cytotoxicity control, plate reader, cherry-picked samples (AID 743446); assay type: functional, cell-based
[8] = HepG2 cell cytotoxicity, dose response, cytotoxicity control, plate reader, cherry-pick, antagonist series (AID 743416); assay type: functional, cell-based
[9] = HEK293 cell viability, dose response, counter-screen for EBV LMP1 inhibitor project, dry powder, set 2 (AID 624374); assay type: functional
Beta-lactamase [10] = molecular target: Beta-lactamase (Pseudomonas aeruginosa, UniProt Q79MP6);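 note: biochemical dose-response test of metallo-beta-lactamase enzyme inhibition, read out by epi-absorbance; purified recombinant IMP-1 metallo-beta-lactamase with nitrocefin as substrate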
Beta-lactamase [11] = molecular target: Beta-lactamase (Salmonella choleraesuis (strain SC-B67), UniProt Q5J463)
[12] = ARNT/TACC3 interaction disruptors, potency, confirmation, biochemical, AlphaScreen, cherry-picked samples (AID 651703); assay type: functional, Homo sapiens;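 note: His-tagged ARNT PAS-B domain paired with GST-TACC3 E629A dimer coactivator fragment; potency of inhibitors that break up the complex and lower AlphaScreen signal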
Mu-type opioid receptor = Mu-type opioid receptor (Homo sapiens, UniProt P35372); assay: (§1) Counterscreen for agonists of heterodimerization of the mu 1 (OPRM1) and delta 1 (OPRD1) opioid receptors: Luminescence-based cell-based high throughput dose response assay to identify agonists of OPRM1 homodimerization.; assay type: functional
[13] = molecular target: Delta-type opioid receptor (Homo sapiens, UniProt P41143); assay: as §1, with “of OPRD1” for “of OPRM1”, “homodimerization. [Related pubchem assays (depositor defined):AID504326, AID504355, AID504692, AID504904, AID504905]” for “homodimerization.”; assay type: functional
[14] = molecular target: 5-hydroxytryptamine receptor 5A (Homo sapiens, UniProt P47898); assay: Counterscreen for agonists of OPRM1-OPRD1 heterodimerization: luminescence-based cell-based high throughput dose response assay to identify agonists of 5-hydroxytryptamine (serotonin) 5A receptor (HTR5A). [Related pubchem assays (depositor defined):AID504326, AID504355, AID504692, AID504904, AID504905]; assay type: functional
[15] = CRF-BP/CRF-R2 complex antagonists, dose response, cell-based, uHTS hits, 384-well (AID 651639); assay type: functional, Homo sapiens; conditions: read-out: IC50_Mean
[16] = molecular target: T2, Corticotropin-releasing factor receptor 2/Corticotropin-releasing factor-binding protein (Homo sapiens, UniProt P24387+Q13324); assay: Dose Response confirmation of uHTS hits for small molecule antagonists of the CRF-binding protein and CRF-R2 receptor complex.; assay type: functional; conditions: read-out: IC50_Mean
T2 sequence (Q13324 whole entry): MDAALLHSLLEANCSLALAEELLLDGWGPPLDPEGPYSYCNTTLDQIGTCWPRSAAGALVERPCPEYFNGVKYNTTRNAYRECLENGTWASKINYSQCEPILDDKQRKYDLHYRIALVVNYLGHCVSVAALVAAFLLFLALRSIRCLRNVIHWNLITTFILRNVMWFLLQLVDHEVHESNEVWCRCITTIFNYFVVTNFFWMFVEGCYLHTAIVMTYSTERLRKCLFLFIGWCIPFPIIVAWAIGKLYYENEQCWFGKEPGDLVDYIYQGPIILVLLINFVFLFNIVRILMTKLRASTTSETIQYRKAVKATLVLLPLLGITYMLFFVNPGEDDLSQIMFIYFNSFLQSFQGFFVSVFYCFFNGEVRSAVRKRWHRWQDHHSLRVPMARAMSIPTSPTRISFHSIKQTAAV
T2 sequence (P24387 whole entry): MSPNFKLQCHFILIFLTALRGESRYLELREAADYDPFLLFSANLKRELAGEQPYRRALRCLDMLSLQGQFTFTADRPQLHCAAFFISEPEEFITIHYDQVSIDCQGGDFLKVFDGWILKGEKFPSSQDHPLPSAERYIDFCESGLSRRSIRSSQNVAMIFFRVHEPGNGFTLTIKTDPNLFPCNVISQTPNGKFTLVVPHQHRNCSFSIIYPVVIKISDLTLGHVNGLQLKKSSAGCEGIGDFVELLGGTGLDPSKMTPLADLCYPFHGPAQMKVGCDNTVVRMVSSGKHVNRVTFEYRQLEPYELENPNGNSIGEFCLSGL

[17] = molecular target: T2, Corticotropin-releasing factor receptor 2/Corticotropin-releasing factor-binding protein; assay: activators of CRF receptor 2 with binding protein – uHTS hits, confirmation (AID 602473); assay type: functional; conditions: read-out: EC50_Mean
[18] = HeLa cell cytotoxicity, dose response, cytotoxicity control for MgcRacGAP inhibitor project (AID 624300); assay type: functional
[19] = molecular target: T3, Rac GTPase-activating protein 1 (Homo sapiens, UniProt Q9H0H5); assay: MgcRacGAP GTPase-activating activity inhibitors, confirmation, biochemical, ADP Hunter fluorescence, primary and confirmatory (AID 624330); assay type: functional
T3 sequence (Q9H0H5 whole entry): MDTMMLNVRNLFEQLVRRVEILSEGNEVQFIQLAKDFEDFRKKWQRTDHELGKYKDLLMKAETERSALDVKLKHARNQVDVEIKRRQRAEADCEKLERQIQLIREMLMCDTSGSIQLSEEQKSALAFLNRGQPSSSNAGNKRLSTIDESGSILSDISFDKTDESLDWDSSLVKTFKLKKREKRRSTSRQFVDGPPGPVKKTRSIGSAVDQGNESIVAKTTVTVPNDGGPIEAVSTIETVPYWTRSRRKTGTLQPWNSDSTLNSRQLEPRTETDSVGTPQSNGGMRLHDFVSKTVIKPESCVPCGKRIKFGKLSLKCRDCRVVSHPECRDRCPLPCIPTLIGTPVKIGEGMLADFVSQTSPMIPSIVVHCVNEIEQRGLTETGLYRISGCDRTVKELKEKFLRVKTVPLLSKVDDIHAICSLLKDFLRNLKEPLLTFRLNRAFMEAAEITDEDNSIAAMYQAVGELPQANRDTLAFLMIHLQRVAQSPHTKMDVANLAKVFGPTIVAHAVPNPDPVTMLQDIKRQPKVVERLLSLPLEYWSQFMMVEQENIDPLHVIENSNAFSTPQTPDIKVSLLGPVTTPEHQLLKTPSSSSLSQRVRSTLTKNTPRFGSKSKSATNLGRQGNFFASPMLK

Cytochrome P450 3A4 = Cytochrome P450 3A4 (Homo sapiens, UniProt P08684);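 note: CYP3A4 tested as one member of a cytochrome P450 panel screen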
Cytochrome P450 2D6 = Cytochrome P450 2D6 (Homo sapiens, UniProt P10635);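 note: CYP2D6 member of a cytochrome P450 panel assay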
Protein skinhead-1 = molecular target: T4, Protein skinhead-1 (Caenorhabditis elegans, UniProt P34707); assay type: functional
T4 sequence (P34707 whole entry): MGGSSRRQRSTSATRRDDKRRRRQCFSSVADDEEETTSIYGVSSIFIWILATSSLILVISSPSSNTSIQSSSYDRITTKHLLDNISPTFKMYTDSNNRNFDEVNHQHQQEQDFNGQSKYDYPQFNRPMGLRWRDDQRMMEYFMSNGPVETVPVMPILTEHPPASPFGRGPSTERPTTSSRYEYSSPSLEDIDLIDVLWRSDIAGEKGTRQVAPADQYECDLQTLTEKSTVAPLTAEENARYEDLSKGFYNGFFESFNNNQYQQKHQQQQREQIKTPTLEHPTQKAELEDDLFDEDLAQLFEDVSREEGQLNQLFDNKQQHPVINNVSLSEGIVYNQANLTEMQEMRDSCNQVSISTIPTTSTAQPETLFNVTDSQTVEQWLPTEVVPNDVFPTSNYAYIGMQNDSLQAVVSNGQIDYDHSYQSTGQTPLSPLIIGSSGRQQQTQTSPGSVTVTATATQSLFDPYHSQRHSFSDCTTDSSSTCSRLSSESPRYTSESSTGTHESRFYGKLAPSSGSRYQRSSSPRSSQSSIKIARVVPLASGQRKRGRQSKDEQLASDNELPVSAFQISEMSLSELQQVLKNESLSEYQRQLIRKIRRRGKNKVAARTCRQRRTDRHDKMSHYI

Cytochrome P450 2C9 = Cytochrome P450 2C9 (Homo sapiens, UniProt P11712)
Sequence of Cytochrome P450 2C9 (P11712 whole entry): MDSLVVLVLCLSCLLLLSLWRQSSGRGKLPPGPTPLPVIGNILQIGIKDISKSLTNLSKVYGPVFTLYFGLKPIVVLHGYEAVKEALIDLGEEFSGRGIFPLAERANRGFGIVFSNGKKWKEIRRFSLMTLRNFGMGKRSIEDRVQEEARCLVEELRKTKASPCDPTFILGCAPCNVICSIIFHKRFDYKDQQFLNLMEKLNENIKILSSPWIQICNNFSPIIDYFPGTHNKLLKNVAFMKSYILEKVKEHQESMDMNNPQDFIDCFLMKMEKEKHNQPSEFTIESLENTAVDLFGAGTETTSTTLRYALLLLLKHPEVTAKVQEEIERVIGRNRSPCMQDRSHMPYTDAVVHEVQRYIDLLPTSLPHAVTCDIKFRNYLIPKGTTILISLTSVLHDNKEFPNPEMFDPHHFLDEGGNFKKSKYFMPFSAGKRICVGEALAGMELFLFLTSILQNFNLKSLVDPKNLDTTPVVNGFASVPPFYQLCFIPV

Sequence of SWI/SNF-related matrix-associated actin-dependent regulator of chromatin subfamily A member 2 (P51531 whole entry): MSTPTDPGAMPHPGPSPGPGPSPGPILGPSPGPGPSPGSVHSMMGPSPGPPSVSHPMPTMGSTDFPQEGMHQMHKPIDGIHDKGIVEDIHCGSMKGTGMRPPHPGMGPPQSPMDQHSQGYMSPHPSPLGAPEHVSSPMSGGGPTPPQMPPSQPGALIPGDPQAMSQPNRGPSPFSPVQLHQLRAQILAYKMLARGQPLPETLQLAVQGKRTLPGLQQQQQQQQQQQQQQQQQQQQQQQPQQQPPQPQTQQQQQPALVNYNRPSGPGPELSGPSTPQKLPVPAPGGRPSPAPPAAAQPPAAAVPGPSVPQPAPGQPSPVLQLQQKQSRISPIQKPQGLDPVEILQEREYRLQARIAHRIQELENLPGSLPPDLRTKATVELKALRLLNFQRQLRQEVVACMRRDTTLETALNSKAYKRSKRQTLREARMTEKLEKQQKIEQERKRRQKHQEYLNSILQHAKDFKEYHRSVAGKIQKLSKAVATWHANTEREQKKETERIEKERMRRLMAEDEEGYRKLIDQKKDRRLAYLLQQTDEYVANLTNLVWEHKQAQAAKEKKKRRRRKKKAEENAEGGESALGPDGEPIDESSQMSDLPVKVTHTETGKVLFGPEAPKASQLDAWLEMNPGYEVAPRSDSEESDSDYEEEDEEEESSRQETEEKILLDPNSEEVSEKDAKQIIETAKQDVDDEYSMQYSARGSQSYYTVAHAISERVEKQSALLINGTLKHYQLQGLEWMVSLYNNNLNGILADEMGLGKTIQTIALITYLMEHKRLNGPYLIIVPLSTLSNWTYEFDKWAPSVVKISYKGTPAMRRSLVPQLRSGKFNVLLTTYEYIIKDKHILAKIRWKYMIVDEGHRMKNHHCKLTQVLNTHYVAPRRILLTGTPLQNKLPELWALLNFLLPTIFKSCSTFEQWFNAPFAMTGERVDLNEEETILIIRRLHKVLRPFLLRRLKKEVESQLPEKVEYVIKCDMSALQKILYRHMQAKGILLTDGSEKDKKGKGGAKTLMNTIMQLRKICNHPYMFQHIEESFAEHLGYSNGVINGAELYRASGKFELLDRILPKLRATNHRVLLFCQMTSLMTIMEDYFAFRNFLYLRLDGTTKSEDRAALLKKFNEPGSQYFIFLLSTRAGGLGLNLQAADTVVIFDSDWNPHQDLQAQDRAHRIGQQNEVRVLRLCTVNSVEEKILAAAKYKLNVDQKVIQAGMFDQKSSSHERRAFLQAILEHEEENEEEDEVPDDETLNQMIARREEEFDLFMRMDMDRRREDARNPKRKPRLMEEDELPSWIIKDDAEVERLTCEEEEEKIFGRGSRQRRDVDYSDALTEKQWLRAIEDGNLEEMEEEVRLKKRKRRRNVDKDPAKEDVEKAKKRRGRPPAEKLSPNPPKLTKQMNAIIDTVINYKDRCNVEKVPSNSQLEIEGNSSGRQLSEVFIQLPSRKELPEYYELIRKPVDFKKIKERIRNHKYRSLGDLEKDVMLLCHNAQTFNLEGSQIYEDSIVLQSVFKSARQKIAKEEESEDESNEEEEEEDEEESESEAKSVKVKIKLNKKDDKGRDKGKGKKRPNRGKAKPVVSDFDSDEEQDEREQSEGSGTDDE
Sequence of Beta-lactamase (Salmonella choleraesuis (strain SC-B67), UniProt Q5J463) (Q5J463 whole entry, the tested form may be a part): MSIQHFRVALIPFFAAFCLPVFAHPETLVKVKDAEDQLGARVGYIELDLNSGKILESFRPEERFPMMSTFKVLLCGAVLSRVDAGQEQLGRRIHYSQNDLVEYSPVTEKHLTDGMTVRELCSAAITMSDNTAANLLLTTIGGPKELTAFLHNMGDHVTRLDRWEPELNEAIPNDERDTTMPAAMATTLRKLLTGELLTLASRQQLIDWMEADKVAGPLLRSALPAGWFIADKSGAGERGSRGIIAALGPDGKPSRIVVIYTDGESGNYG
Sequence of Mu-type opioid receptor (P35372 whole entry): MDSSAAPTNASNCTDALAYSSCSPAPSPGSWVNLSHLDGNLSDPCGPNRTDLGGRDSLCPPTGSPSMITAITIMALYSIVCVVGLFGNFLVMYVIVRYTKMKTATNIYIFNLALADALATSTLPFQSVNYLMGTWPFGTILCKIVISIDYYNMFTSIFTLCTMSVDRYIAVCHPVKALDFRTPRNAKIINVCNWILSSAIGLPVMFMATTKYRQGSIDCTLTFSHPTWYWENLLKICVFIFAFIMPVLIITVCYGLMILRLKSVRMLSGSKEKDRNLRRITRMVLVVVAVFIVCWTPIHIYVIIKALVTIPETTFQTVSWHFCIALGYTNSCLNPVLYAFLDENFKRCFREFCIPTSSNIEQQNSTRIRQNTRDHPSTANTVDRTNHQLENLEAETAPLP
Sequence of Delta-type opioid receptor (P41143 whole entry): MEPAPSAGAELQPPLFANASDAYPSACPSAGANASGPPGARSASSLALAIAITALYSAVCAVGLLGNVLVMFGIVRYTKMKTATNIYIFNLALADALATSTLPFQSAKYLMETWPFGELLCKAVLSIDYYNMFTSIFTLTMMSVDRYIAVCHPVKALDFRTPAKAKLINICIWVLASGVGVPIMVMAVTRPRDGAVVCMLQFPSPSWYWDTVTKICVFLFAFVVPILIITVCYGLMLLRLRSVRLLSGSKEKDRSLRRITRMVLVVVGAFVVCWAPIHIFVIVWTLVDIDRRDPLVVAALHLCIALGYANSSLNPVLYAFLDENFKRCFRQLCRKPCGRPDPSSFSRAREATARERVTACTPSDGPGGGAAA
Sequence of Cytochrome P450 3A4 (P08684 whole entry): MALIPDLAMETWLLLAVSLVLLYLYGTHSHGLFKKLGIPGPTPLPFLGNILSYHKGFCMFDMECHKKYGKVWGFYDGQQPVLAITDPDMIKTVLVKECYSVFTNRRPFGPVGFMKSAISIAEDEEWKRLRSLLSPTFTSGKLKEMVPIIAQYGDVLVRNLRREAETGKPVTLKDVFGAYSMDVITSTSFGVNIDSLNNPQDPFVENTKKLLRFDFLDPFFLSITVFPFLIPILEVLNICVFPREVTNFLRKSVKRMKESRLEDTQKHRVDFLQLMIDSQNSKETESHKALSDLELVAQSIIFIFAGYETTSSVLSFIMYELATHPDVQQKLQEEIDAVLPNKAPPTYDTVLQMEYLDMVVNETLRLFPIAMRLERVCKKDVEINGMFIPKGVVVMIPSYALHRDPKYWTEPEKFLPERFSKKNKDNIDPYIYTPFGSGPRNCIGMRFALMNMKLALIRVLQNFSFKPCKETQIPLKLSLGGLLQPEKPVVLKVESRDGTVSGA
Sequence of 5-hydroxytryptamine receptor 5A (P47898 whole entry): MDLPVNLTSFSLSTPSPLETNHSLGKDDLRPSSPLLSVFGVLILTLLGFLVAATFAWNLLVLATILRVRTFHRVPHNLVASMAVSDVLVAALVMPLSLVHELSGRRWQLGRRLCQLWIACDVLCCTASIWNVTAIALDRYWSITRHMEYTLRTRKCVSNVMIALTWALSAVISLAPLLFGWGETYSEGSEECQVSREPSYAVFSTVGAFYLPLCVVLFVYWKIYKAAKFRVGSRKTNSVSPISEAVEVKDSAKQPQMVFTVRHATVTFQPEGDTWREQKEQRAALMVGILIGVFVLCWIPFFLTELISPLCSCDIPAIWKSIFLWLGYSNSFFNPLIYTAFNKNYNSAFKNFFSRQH
Sequence of Beta-lactamase (Pseudomonas aeruginosa, UniProt Q79MP6) (Q79MP6 whole entry): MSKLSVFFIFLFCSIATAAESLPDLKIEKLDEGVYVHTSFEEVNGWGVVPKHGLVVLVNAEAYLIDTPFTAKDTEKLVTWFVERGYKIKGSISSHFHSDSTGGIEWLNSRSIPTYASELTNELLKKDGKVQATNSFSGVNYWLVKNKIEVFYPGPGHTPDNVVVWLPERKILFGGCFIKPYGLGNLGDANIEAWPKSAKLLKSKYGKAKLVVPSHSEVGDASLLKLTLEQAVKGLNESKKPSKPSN
Sequence of Cytochrome P450 2D6 (P10635 whole entry): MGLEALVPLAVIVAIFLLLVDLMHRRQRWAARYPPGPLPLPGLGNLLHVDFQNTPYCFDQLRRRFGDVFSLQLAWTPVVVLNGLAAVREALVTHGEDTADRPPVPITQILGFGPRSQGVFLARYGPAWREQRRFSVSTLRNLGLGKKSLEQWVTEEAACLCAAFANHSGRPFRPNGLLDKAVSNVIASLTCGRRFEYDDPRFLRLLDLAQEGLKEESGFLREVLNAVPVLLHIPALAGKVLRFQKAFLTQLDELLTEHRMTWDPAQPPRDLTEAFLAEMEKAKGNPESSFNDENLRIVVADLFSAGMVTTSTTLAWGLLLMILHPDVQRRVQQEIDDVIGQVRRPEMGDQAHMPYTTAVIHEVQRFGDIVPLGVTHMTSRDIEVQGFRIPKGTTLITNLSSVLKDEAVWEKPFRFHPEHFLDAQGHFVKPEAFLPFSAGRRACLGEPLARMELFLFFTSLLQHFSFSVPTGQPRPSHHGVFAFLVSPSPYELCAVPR

In the case of O=C(CN1CCCCC1)Nc1c2c(nc3ccccc13)N(c1ccccc1)CC2, the EC50 [1] was > 91.2 µM (inactive) and the EC50 [2] was > 91.2 µM (inactive).
For CC(C)CC#Cc1ccc2c(c1)O[C@@H](CN(C)C(=O)C1CCC1)[C@@H](C)CN([C@H](C)CO)S2(=O)=O, the AC50 (HeLa) was > 52 µM (inactive).
In the case of c1ccc2c(NCCCN3CCOCC3)c3ccccc3nc2c1, the EC50 [1] was > 3.38 µM (active), the AC50 [3] was 31.3 µM (active) and the EC50 [2] was > 91.2 µM (inactive). The AC50 [4] was 1.06 µM (active), the AC50 [5] was 21 µM (active) and the AC50 (INS1) was 2.33 µM (active). For the same compound, the AC50 [6] was 3.28 µM (active), the AC50 [7] was 3.16 µM (active) and the AC50 [8] was 3.54 µM (active).
Work on C[C@H](NC(=O)C[C@H]1C=C[C@H](NC(=O)Cc2ccccn2)[C@H](CO)O1)c1ccccc1 yielded an AbsAC35 [9] of 200 µM.
With COc1ccc2c(Cl)c(C(=O)NCCCn3ccnc3)sc2c1Cl the IC50 (Beta-lactamase [10]) was > 59.6 µM (inactive) and the IC50 (Beta-lactamase [11]) was > 59.6 µM (inactive).
In the case of Cc1nn2c(nc1=O)NNC2(C)C(C)(C)C (centres undefined), the AC50 [12] was 130 µM (active).
In the case of CCCCNC(=O)CCC(=O)N1CCN(C(c2ccccc2)c2ccccc2)CC1, the AC50 [12] was 81 µM (active).
With Cc1ccc2c(Cl)c(Cc3ccccc3)c(=S)[nH]c2n1 the EC50 (Mu-type opioid receptor) was > 92.5 µM (inactive), the EC50 [13] was > 92.5 µM (inactive) and the EC50 [14] was > 92.5 µM (inactive).
For CCOC(=O)C(NC(=O)CC(C)C)(Nc1sc(C)c(CC)c1C#N)C(F)(F)F (centres undefined), the IC50 [15] was > 20 µM (inactive), the IC50 [16] was 13.6 µM (active) and the EC50 [17] was > 53 µM (inactive).
With COc1ccc(C(CNC(=O)c2cc3ccccc3cc2O)N2CCOCC2)cc1 (centres undefined) the CC50 [18] was 100 µM (active) and the IC50 [19] was 77 µM (active).
With CCOC(=O)NCc1ccc2c(c1)cc(C)n2C the AC50 (Cytochrome P450 3A4) was 14.1 µM (inconclusive), the AC50 (Cytochrome P450 2D6) was “inconclusive” and the IC50 (Protein skinhead-1) was > 100 µM (inactive). For the same compound, the AC50 (Cytochrome P450 2C9) was “inconclusive”.
